Experimental data: US20040192772A1, “Agent for treating the symptoms of dementia disorders and/or depression” (priority 2001, published 2004)

Test system: patients suffering from dementia disorders and depression
Assay: therapy of patients suffering from dementia disorders and depression
Assay type: in vivo, human
Settings: compared with the other local anaesthetics of the anilide group (lidocaine, bupivacaine, butanilicaine, etidocaine, tholycaine, ropivacaine)

## Cc1cccc(C)c1NC(=O)C1CCCCN1C (stereo not shown) [Mepivacaine, mepivacaine]
  effectiveness for the therapy of patients suffering from dementia disorders and depression: most effective
